Patent US7439265B2, “Irciniastatins a and b” (Arizona Board of Regents, a body corporate of the State of …, priority 2003, dated 2008)
≈ marks a conversion by molar mass, not a printed value.

What was measured:
[1] = tested on: BXPC-3 pancreas cancer cell line; experiment: Sulforhodamine B cancer cell growth inhibition, BXPC-3; type: cell-based, human; details: 48 hours
Description: (§1) Inhibition of human cancer cell growth was assessed using the National Cancer Institute's standard sulforhodamine B assay as previously described. Briefly, cells in a 5% fetal bovine serum/RPMI1640 medium solution were inoculated in 96-well plates and incubated for 24 hours Serial dilutions of the compounds were then added. After 48 hours, the plates were fixed with trichloroacetic acid, stained with sulforhodamine B and read with an automated microplate reader. A growth inhibition of 50% (GI50 of the drug concentration causing a 50% reduction in the net protein increase) was calculated from optical density data with Immunosoft software. Inhibition of the mouse leukemia P388 cells was assessed in a 10% horse serum/Fisher medium solution for 24 hours, followed by a 48 hour incubation with serial dilutions of the compounds. Cell growth inhibition (ED50) was then calculated using a Z1 Beckman/Coulter particle counter. (Monks, A., et al., Feasibility of high-flux anticancer screen using a diverse panel of cultured human tumor cell lines, J Natl. Cancer Inst. 1991, 83, 757-766.)

[2] = tested on: SF268 CNS cancer cell line; experiment: Sulforhodamine B cancer cell growth inhibition, SF268; type: cell-based, human; details: 48 hours
Description: as §1

[3] = tested on: P388 lymphocytic leukemia cells; experiment: Inhibition of mouse leukemia P388 cell growth; type: cell-based; details: P388 murine leukemia, in Table 2
Description: as §1

[4] = tested on: MCF-7 breast cancer cell line; experiment: Sulforhodamine B cancer cell growth inhibition, MCF-7; type: cell-based, human; details: 48 hours
Description: as §1

[5] = tested on: NCI-H460 lung cancer cell line; experiment: Sulforhodamine B cancer cell growth inhibition, NCI-H460; type: cell-based, human; details: for GI50: NCI-H460 lung, 48 hours
Description: as §1

[6] = tested on: DU-145 prostate cancer cell line; experiment: Sulforhodamine B cancer cell growth inhibition, DU-145; type: cell-based, human; details: 48 hours
Description: as §1

[7] = tested on: murine P388 leukemia cell line and six human cancer cell lines; experiment: Cancer cell growth inhibition, P388 plus minipanel of human cancer cell lines (summary); type: cell-based; details: against P388, BXPC-3, MCF-7 and SF268
Description: as §1

[8] = tested on: KM20L2 colon cancer cell line; experiment: Sulforhodamine B cancer cell growth inhibition, KM20L2; type: cell-based, human; details: 48 hours
Description: as §1

[9] = tested on: Neisseria gonorrhoeae ATCC 49226; experiment: Broth microdilution antibacterial susceptibility; type: cell-based
Description: (§2) Ircinastatin A (1) was evaluated against the bacteria Stenotrophomonas maltophilia ATCC 13637, Micrococcus luteus Presque Isle 456, Staphylococcus aureus ATCC 29213, Escherichia coli ATCC 25922, Enterobacter cloacae ATCC 13047, Enterococcus faecalis ATCC 29212, Streptococcus pneumoniae ATCC 6303 and Neisseria gonorrhoeae ATCC 49226, and the fungi Candida albicans ATCC 90028 and Cryptococcus neoformans ATCC 90112, following established broth microdilution susceptibility assays. The minimum inhibitory concentration was defined as the lowest concentration of irciniastatin A that inhibited all visible growth of the test organism (optically clear). Assays were repeated on separate days. (National Committee for Clinical Laboratory Standards. Methods for Dilution Antimicrobial Susceptibility Tests for Bacteria that Grow Aerobically. Approved Standard M7-A5. Wayne, Pa.: NCCLS, 2000; National Committee for Clinical Laboratory Standards. Reference Method for Broth Dilution Antifungal Susceptibility Testing of Yeasts. Approved Standard M27-A. Wayne, Pa.: NCCLS, 1997.)

[10] = tested on: Cryptococcus neoformans ATCC 90112; experiment: Broth microdilution antifungal susceptibility; type: cell-based
Description: as §2

[11] = tested on: HUVEC (human umbilical vascular endothelial cells); experiment: Growth inhibition of normal endothelial cells (HUVEC); type: cell-based

SMILES | GI50 [1] [ng/mL] | GI50 [2] [ng/mL] | GI50 [3] [ng/mL] | GI50 [4] [ng/mL] | GI50 [5] [ng/mL] | GI50 [6] [ng/mL] | cell growth inhibition of irciniastatin B (2) relative to irciniastatin A (1) [7] | GI50 [8] [ng/mL] | minimum inhibitory concentration [9] [µg/mL] | activity of irciniastatin A relative to irciniastatin B ([5]; NCI-H460 lung cancer cells) | minimum inhibitory concentration [10] [µg/mL] | GI50 [11] [ng/mL]
C=C(C)C[C@H](OC)[C@H](O)C(=O)N[C@@H](OC)[C@@H]1CC(=O)C(C)(C)[C@@H](C[C@H](O)[C@@H](C)[C@H]2Cc3c(C)c(O)cc(O)c3C(=O)O2)O1 [Irciniastatin B, irciniastatin B] | 0.73 (≈ 1.2 nM) | 0.66 (≈ 1.09 nM) | 6 (≈ 9.87 nM) | 0.5 (≈ 0.823 nM) | 1.2 (≈ 1.97 nM) | 1.6 (≈ 2.63 nM) | ten times stronger | 2.1 (≈ 3.46 nM) | – | – | – | –
C=C(C)CC(OC)[C@H](O)C(=O)N[C@@H](OC)[C@@H]1C[C@@H](O)C(C)(C)[C@@H](C[C@H](O)[C@@H](C)[C@H]2Cc3c(C)c(O)cc(O)c3C(=O)O2)O1 (stereo partly shown) [Irciniastatin A, irciniastatin A] | 3.8 (≈ 6.23 nM) | 3.4 (≈ 5.58 nM) | 4.13 (≈ 6.77 nM) | 3.2 (≈ 5.25 nM) | <0.1 | 2.4 (≈ 3.94 nM) | – | 2.7 (≈ 4.43 nM) | 64 (≈ 105000 nM) | at least 10 times | 16 (≈ 26200 nM) | <0.5
